From US20140050778A1, “NUCLEIC ACID BINDING COMPOUNDS, METHODS OF MAKING, AND USE THEREOF” (UNIVERSITY OF ROCHESTER, priority 2010, published 2014)
Like-named read-outs stand apart in the source and are kept apart here.

Columns and labels:
Experiment in all cases: SPR binding to immobilized biotinylated RNA
[1] = system: (CUG)10 RNA (SEQ ID NO: 3); conditions: for ka / kd / Kd / Residence time (t1/2) for compound binding to RNA / Off-rates (koff) / On-rates (kon) / apparent KD: (CUG)10; for sequence selectivity: CUG repeats versus other RNAs
Procedure: (§1) SPR binding measurements were performed on a Biacore-X instrument (Biacore, Inc., Uppsala, Sweden) with two flow channels (FC1 and FC2). 5′-Biotinylated-RNA sequences, with a C6 linker separating the biotin label from the RNA (Integrated DNA Technologies Inc.) were immobilized on streptavidin (Rockland Immunochemicals) functionalized carboxylmethyl dextran coated sensor chips (CM5, G.E. Healthcare) using EDC/NHS (Advanced ChemTech) coupling chemistry. Filtered (0.2μ), degassed and autoclaved HBS-N buffer (0.01M Hepes, pH=7.4, 0.15 M NaCl) was employed as sample and as running buffer for all SPR experiments. A typical protocol for an experiment is as follows: A CM5 sensor chip was allowed to equilibrate to room temperature and then docked into the instrument. Following priming with running buffer, FC1 and FC2 were conditioned by manual injection of 20 μL aqueous NaOH (50 mM) at a flow rate of 30 μL/min. This was repeated 3 times followed by a wash command. Next, the carboxyl groups on the sensor chip surface in both flow cells were activated separately by injecting 60 μL of freshly prepared 1:1 mixture of EDC (0.4 M) and NHS (0.1 M) at a 5 μL/min flow rate followed by a wash. […] After washing, the surface was deactivated with 60 μL injection of ethanolamine (1M, pH=8.5) at 5 μL/min. The flow cells were primed, and the streptavidin surface in FC1 alone was blocked with 30 μL of biotin (20 μM in HBS-N) at 5 μL/min. The RNA (200 nM in running buffer, HBS-N) to be immobilized was unfolded by heating above its predicted melting temperature in a heated block for 2 min and then allowed to refold by cooling gradually to room temperature. The RNA was then immobilized in FC2 alone to response units ranging from 200-1000 RU using a 5 μL/min flow rate. Representative sensorgrams for the immobilization procedure is shown in FIGS. 2A-B. Two 20 μL aliquots of NaCl (0.5 M) were injected at a 30 μL/min flow rate to remove non-specifically bound RNA. The level of RNA immobilized was noted when the baseline was stable, usually after repeated buffer injection followed by a “prime” command. Binding measurements were performed by flowing various concentrations of the compounds to be analyzed over the immobilized RNA and recording the reference-subtracted (FC2−FC1) sensorgrams. For kinetic analysis, at least five sensorgrams corresponding to different concentrations of compound (usually ranging from 0.05-1 μM in HBS-N) were obtained using flow rates of either 60 μL/min or 30 μL/min. The experimental sensorgrams were globally fitted to a 1:1 binding equation (Biaevaluation software) to obtain association rates (ka) and dissociation rates ([…]) as well as equilibrium binding constants (KD). To measure the binding stoichiometry (n), the relations in equations (1-3) below were used: […]
(§2) where RUmax is the maximum resonance response unit at saturation, RURNA is the amount RU of RNA immobilized, n is the stoichiometry, MWcompound and MWRNA are molecular weights of compound and RNA respectively, and RUeq represents the resonance response at steady-state (equilibrium). The response units at equilibrium were subjected to Scatchard binding plots of (r/Cfree vs. r).
This technique allows the association and dissociation rates (ka and kd), equilibrium binding constants (KD), and the binding stoichiometry (n) to be measured in a label-free format (Liu and Wilson, “Quantitative Analysis of Small Molecule-nucleic Acid Interactions with a Biosensor Surface and Surface Plasmon Resonance Detection,” Methods Mol. Biol. 613:1-23 (2010), which is hereby incorporated by reference in its entirety).

[2] = system: (CUG)2 RNA (SEQ ID NO: 1); conditions: Table 7, SPR
Procedure: as §1, §2
(§3) The binding characteristics of compounds 3-11 were evaluated against pathogenic CUG^exp RNA and other RNA sequences by SPR. This technique allows the association and dissociation rates (ka and kd), equilibrium binding constants (KD), and the binding stoichiometry (n) to be measured in a label-free format (Liu and Wilson, “Quantitative Analysis of Small Molecule-nucleic Acid Interactions with a Biosensor Surface and Surface Plasmon Resonance Detection,” Methods Mol. Biol. 613:1-23 (2010), which is hereby incorporated by reference in its entirety). […]

[3] = system: HIV-1 FSS RNA (SEQ ID NO: 7)
Procedure: as §1
as §2, with “r). […]” for “r).”
SPR and fluorescence titration experiments, performed using the protocol described in Examples 3 and 4 above, except using as the target a highly conserved RNA sequence responsible for regulating the production of the Gag-Pol polyprotein via a −1 ribosomal frameshift, which occurs along a “slippery sequence” in gag-pol mRNA (SEQ ID NO: 7). This “frameshift stimulatory sequence” (or “HIV-1 FSS”) consists of an upper stemloop and a lower stem, separated by a purine bulge in the most common types of HIV (FIG. 19). For the fluorescent titration experiments, the upper stemloop of SEQ ID NO: 7 was employed. Cell uptake and toxicity studies were carried out using human fibroblasts according to Example 5 above.

[4] = system: (CAG)10 RNA (SEQ ID NO: 5); conditions: for Off-rates (koff) / On-rates (kon): SPR
Procedure: as §1, §2, §3

[5] = system: (CCUG)10 RNA (SEQ ID NO: 4); conditions: for Residence time (t1/2) for compound binding to RNA / Off-rates (koff) / On-rates (kon): (CCUG)10
Procedure: as §1, §2, §3

[6] = system: CUG-CAG duplex ("Duplex") (SEQ ID NO: 6); conditions: Duplex
Procedure: as §1, §2, §3

| Molecule | ka ([1]; Table 7, SPR) | kd ([1]; Table 7, SPR) | Kd ([1]; Table 7, SPR, read-out: KD) | Residence time (t1/2) for compound binding to RNA [1] | Off-rates (koff) ([1]; SPR) | On-rates (kon) ([1]; SPR) | Residence time (t1/2) for compound binding to RNA [5] | Off-rates (koff) ([5]; SPR) | On-rates (kon) ([5]; SPR) | further results |
| --- | --- | --- | --- | --- | --- | --- | --- | --- | --- | --- |
| CCc1nc2cc3ccccc3cc2cc1C(=O)N1CCC[C@H]1C(=O)N[C@@H](C/C=C/C[C@H](NC(=O)[C@@H]1CCCN1C(=O)c1cc2cc3ccccc3cc2nc1CC)C(=O)N(C)[C@@H](CCCCN)C(=O)NCCCN)C(=O)N(C)[C@@H](CCCCN)C(=O)NCCCN [20 (E)] | ka = 1.8 ± 0.9E+4/M * s | kd = 1.4 ± 0.6E−3/s | 83 nM |  |  |  |  |  |  |  |
| CCc1nc2cc3ccccc3cc2cc1C(=O)N1CCC[C@H]1C(=O)N(C)[C@@H](C/C=C\C[C@@H](C(=O)N[C@@H](CCCCN)C(=O)NCCCN)N(C)C(=O)[C@@H]1CCCN1C(=O)c1cc2cc3ccccc3cc2nc1CC)C(=O)N[C@@H](CCCCN)C(=O)NCCCN [21 (Z)] | ka = 1.6 ± 0.3E+4/M * s | kd = 1.6 ± 0.1E−3/s | 102 nM |  |  |  |  |  |  |  |
| CCc1nc2cc3ccccc3cc2cc1C(=O)N1CCC[C@H]1C(=O)N(C)[C@@H](C/C=C/C[C@@H](C(=O)N(C)[C@@H](CCCCN)C(=O)NCCCN)N(C)C(=O)[C@@H]1CCCN1C(=O)c1cc2cc3ccccc3cc2nc1CC)C(=O)N(C)[C@@H](CCCCN)C(=O)NCCCN [22 (E)] | bka = 1.2 ± 0.3E+4/M * s | kd = 8.7 ± 0.3E−4/s | 72 nM |  |  |  |  |  |  | ka [2]: ka = 1.9 ± 0.4E+4/M * s; kd [2]: kd = 8 ± 4E−4/s |
| CCc1nc2cc3ccccc3cc2cc1C(=O)N1CCC[C@H]1C(=O)N(C)[C@@H](C/C=C\C[C@@H](C(=O)N(C)[C@@H](CCCCN)C(=O)NCCCN)N(C)C(=O)[C@@H]1CCCN1C(=O)c1cc2cc3ccccc3cc2nc1CC)C(=O)N(C)[C@@H](CCCCN)C(=O)NCCCN [22 (Z)] | ka = 9.2 ± 0.4E+3/M * s | kd = 3 ± 2E−3/s | 378 nM |  |  |  |  |  |  |  |
| NCCCC[C@H](NC(=O)[C@H](C/C=C\C[C@H](NC(=O)[C@@H]1CCCN1)C(=O)N[C@@H](CCCCN)C(=O)NCCCN)NC(=O)[C@@H]1CCCN1)C(=O)NCCCN [Compound 6] |  |  |  | 19.91 s | 0.0348 s⁻¹ | 132000 M⁻¹ s⁻¹ | 2.32 s | 0.299 s⁻¹ | 13600 M⁻¹ s⁻¹ | Residence time (t1/2) for compound binding to RNA [3]: 26.96 s; Off-rates (koff) ([3]; SPR): 0.0257 s⁻¹; On-rates (kon) ([3]; SPR): 221000 M⁻¹ s⁻¹; apparent KD ([1]; SPR): modest affinity; sequence selectivity ([1]; SPR): neither displayed any selectivity; Residence time (t1/2) for compound binding to RNA [4]: 36.09 s; Off-rates (koff) [4]: 0.0192 s⁻¹; On-rates (kon) [4]: 125000 M⁻¹ s⁻¹ |
| CCc1nc2cc3ccccc3cc2cc1C(=O)N[C@@H](CCCCN)C(=O)N[C@@H](C/C=C\C[C@H](NC(=O)[C@H](CCCCN)NC(=O)c1cc2cc3ccccc3cc2nc1CC)C(=O)N1CCC[C@H]1C(=O)NCCCN)C(=O)N1CCC[C@H]1C(=O)NCCCN [Compound 8] |  |  |  | 228.71 s | 0.00303 s⁻¹ | 24600 M⁻¹ s⁻¹ | 152.98 s | 0.00453 s⁻¹ | 15400 M⁻¹ s⁻¹ | apparent KD ([1]; SPR): reduced affinity; sequence selectivity ([1]; SPR): no selectivity for CUG or CCUG repeats relative to duplex CUG-CAG or HIV-1 FSS RNAs; Residence time (t1/2) for compound binding to RNA [4]: 116.86 s; Off-rates (koff) [4]: 0.00593 s⁻¹; On-rates (kon) [4]: 12600 M⁻¹ s⁻¹; Residence time (t1/2) for compound binding to RNA [6]: 255.72 s; Off-rates (koff) ([6]; SPR): 0.00271 s⁻¹; On-rates (kon) ([6]; SPR): 29000 M⁻¹ s⁻¹ |
| CCc1nc2cc3ccccc3cc2cc1C(=O)N[C@@H](C/C=C\C[C@H](NC(=O)c1cc2cc3ccccc3cc2nc1CC)C(=O)N1CCC[C@H]1C(=O)N[C@@H](Cc1ccccc1)C(=O)NCCCN)C(=O)N1CCC[C@H]1C(=O)N[C@@H](Cc1ccccc1)C(=O)NCCCN [Compound 19] |  |  |  |  |  |  |  |  |  | Kd ([3]; SPR, read-out: apparent KD): 102 ± 0.021 nM |
| Neomycin [reference compound] |  |  |  | 13.70 s | 0.0507 s⁻¹ | 125000 M⁻¹ s⁻¹ | 3.55 s | 0.195 s⁻¹ | 109000 M⁻¹ s⁻¹ | Kd ([1]; SPR, read-out: apparent KD): 409.6 ± 0.89 nM; Kd ([5]; SPR, (CCUG)10, running text, read-out: apparent KD): 1960 ± 714 nM |
